We go through five compounds from patent publication US20140080772A1, “TREATMENTS FOR MELANOMA” (The Board of Regents of the University of Texas System, priority 2012, published 2014).

Read-outs that look alike come from different tables or passages of the source.

The test system of one data set is KU812. To be noted: 20 mg/kg/day; cited from earlier work.
For data set [1], the target named is T1, WT Bcr-Abl (Homo sapiens, UniProt P00519). As to conditions: read-out: IC50, Bcr-Abl autophosphorylation and downstream kinase activity; K562 cells; cited from earlier work.
Target sequence in this assay (P00519 with tags, fused parts or gaps): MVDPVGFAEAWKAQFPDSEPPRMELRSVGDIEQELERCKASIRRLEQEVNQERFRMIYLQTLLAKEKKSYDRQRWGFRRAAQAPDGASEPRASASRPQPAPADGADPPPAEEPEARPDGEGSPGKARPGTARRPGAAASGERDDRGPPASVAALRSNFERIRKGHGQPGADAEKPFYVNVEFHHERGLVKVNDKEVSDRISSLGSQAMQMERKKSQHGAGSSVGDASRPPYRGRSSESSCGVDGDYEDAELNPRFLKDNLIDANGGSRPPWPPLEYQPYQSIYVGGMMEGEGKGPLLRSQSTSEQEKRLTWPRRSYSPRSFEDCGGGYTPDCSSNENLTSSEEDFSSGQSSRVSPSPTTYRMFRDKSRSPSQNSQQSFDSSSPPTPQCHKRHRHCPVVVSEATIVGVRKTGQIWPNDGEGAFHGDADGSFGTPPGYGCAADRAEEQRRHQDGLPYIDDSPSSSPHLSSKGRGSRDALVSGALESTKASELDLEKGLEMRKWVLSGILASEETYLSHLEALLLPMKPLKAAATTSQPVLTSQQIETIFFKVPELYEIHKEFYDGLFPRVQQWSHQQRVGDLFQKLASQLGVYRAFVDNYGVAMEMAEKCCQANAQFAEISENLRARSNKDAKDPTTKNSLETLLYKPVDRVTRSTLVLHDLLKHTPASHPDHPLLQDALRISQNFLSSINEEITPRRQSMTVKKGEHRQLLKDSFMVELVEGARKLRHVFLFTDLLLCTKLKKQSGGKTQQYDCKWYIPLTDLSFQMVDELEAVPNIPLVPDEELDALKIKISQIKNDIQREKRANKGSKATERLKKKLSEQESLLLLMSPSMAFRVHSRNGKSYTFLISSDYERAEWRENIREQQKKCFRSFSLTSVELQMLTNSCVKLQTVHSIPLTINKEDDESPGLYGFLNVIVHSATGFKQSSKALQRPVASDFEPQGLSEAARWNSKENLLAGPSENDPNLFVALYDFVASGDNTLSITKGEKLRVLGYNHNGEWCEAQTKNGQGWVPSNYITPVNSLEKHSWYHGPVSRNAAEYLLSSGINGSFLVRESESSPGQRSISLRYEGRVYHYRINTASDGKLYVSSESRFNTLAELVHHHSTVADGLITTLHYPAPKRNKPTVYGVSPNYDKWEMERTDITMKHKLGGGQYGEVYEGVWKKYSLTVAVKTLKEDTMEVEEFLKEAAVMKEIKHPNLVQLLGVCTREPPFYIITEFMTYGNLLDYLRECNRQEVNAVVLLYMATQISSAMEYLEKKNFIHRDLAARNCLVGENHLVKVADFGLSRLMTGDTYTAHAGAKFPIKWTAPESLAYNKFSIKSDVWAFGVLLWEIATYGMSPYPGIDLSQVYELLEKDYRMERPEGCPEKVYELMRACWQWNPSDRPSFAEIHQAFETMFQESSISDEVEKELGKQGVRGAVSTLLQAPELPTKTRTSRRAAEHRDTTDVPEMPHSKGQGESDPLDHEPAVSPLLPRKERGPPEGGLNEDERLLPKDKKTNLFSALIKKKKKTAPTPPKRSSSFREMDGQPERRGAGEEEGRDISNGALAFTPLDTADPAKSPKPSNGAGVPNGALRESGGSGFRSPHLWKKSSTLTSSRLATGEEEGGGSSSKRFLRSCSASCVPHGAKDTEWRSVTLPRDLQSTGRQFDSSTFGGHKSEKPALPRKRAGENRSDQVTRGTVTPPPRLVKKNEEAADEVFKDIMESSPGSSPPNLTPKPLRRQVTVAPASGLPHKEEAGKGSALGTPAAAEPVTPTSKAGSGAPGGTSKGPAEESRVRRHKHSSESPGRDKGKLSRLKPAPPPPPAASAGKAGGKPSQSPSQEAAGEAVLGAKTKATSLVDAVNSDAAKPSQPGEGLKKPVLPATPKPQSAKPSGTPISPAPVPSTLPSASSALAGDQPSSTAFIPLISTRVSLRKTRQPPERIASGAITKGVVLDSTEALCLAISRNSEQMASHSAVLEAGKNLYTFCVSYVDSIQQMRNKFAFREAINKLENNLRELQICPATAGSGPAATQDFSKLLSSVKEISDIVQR
The target of data set [2] is T1, WT Bcr-Abl. As to conditions: read-out: IC50, Bcr-Abl autophosphorylation and downstream kinase activity; 293T cells; cited from earlier work.
Target sequence in this assay (P00519 28-1130 limits assumed): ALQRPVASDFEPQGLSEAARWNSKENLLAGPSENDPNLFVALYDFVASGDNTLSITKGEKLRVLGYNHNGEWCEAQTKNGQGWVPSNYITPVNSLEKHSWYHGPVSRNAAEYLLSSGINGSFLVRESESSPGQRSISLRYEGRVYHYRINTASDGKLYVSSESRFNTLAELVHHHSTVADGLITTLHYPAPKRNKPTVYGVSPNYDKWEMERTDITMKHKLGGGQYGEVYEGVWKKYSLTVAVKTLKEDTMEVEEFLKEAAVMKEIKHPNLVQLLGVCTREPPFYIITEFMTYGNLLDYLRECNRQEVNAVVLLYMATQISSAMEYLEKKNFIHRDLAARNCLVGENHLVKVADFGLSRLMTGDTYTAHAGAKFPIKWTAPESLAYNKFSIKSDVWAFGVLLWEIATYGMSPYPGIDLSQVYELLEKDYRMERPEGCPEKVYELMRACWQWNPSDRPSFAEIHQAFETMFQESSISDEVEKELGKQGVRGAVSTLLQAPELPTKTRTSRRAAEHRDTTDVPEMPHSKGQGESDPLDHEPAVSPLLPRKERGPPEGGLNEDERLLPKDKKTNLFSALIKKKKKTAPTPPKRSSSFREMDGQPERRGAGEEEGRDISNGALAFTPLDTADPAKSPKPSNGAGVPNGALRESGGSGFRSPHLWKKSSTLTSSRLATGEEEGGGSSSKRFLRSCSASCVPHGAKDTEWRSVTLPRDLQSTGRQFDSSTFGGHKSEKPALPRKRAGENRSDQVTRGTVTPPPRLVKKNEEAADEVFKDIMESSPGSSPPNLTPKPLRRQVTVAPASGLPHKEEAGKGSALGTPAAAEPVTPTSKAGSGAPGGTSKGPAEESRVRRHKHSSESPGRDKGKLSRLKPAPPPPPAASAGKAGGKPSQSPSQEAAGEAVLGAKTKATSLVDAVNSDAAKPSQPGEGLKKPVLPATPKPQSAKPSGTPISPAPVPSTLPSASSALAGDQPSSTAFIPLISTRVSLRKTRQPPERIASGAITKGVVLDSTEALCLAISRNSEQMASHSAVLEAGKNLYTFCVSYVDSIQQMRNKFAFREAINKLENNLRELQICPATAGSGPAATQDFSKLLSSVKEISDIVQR
The conditions of data set [3]: mouse, in vivo; cited from earlier work.
Data set [4] deals with human melanocytes (hMEL) and human umbilical cord blood cells (hUCB). As to the method: (§1) Melanomas and hUCB were treated with 50 μM of cardiac glycosides or DMSO for 72 h in triplicates. Viability was measured with CellTiter-Glo. […] All error bars denote SD.
(§2) In these in vitro assays, cells were treated with various doses of cardiac glycosides or DMSO for 72 hr in triplicate. Viability was measured with CellTiter-Glo.
(§3) Again, cells were treated in vitro with various doses of RO 31-8220 or DMSO for 72 hr in triplicates. Viability was measured with CellTiter-Glo.

The target in a further data set is MAPKAP-K1b (Homo sapiens, UniProt P51812). As to conditions: cited from earlier work.
Data set [5] concerns M481 metastatic melanoma cells. The experiment in a line: M481 melanoma xenograft tumor growth in NSG mice. Format: in vivo.
Procedure: M481 metastatic melanoma cells were implanted in s.c. tissue on right flanks of NSG mice. […] Tumors were measured every 2-3 day with calipers.
(FIG. 6A) M481 efficiently metastasizing melanoma cells were implanted in s.c. tissue on right flanks of NSG mice. […] Tumors were measured every 2-3 day with calipers. Mean±SD is reported.
Subcutaneous injections of human melanoma cells were performed in each flank and the interscapular region of NOD.CB17-Prkdcscid Il2rgtm1Wjl/SzJ (NOD/SCID IL2Rγ^null, NSG) mice (Jackson Laboratories) in a final volume of 50 μl.
In these experiments metastatic melanoma cells were implanted in s.c. tissue on right flanks of NSG mice. […] Tumors were measured every 2-3 day with calipers and bioluminescence imaging was performed at day 14.
To address whether inhibition of Lyn kinase can block the ability of melanoma cells to grow in our xenograft model, they performed an in vivo drug treatment. NSG mice were injected with a 100-cell dose of a metastatic melanoma, M481, which expressed a GFP-luciferase construct. […] We tested two different doses, 4 mg/kg body mass/day and 20 mg/kg/day. Control mice were injected with 5% DMSO solution.
Data set [6] deals with JNK, glycogen synthase, MAPK, ERK2. As to conditions: rat adipocytes and L6 myotubes; cited from earlier work.
The subject of data set [7] is primary melanomas (M715, M711, M741 and M405). The experiment in a line: Dose response viability assay (CellTiter-Glo) on primary human melanoma cells. Format: cell-based. To be noted: 72 hr, triplicate. As to the method: as §1, §2, §3
In general terms: Cellular ATP, detected with luciferase, serves as a proxy for viable cell number.

Another data set has as its target S6K1 (Homo sapiens, UniProt P23443). To be noted: cited from earlier work.
Data set [8] deals with voltage-dependent Na+ channels. To be noted: cited from earlier work.
The next data set has as its target PKCα (Homo sapiens, UniProt P17252). As to conditions: cited from earlier work.
Data set [9] deals with M214 metastatic melanoma cells. Format: in vivo, NSG mice. To be noted: digitoxin 0.5 mg/kg/day; dacarbazine 5 mg/kg every other day; alone or in combination.
Procedure: M214 metastatic melanoma cells were implanted in s.c. tissue on right flanks of NSG mice. When tumors became palpable, mice were randomized to four different treatments. […] Control mice received equivalent volume of DMSO. […] Tumors were measured every 2-3 day with calipers. Mean^±SD is reported (*P<0.05, **P<0.005, ***P<0.0005, ****P<0.0001, ns: not significant; two-tailed Student's t test). […] The statistical significance of differences between mean values was assessed by the Student's t-test.
In these experiments, metastatic melanoma cells were injected subcutaneously in the right flanks of immunocompromised NSG mice. When tumors became palpable, mice were randomized to four different treatments. […] Control mice received equivalent volume of DMSO.
The conditions of data set [10]: in vivo; cited from earlier work.
Where [11] appears, read: 72 hr, triplicate, CellTiter-Glo.

MAPKAP-K1b, sequence (P51812 whole entry, species assumed): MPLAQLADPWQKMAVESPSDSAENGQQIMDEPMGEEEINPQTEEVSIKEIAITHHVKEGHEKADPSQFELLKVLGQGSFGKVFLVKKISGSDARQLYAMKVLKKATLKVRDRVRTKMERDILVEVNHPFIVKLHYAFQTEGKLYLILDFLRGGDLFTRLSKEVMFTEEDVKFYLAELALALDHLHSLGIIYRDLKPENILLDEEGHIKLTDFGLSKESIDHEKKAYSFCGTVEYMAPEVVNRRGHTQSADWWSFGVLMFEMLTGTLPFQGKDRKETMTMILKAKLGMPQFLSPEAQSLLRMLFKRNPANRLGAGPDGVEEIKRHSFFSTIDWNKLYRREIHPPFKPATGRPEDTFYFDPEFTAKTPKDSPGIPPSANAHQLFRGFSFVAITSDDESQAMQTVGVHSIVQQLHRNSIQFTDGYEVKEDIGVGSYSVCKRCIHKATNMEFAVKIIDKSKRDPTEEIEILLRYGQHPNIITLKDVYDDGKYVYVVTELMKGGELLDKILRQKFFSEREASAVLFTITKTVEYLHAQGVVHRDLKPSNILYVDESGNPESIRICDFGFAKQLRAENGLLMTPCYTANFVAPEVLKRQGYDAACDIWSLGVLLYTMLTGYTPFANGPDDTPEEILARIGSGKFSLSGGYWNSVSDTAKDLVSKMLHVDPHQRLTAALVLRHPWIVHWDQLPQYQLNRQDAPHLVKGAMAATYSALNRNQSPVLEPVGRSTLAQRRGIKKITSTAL
S6K1, sequence (P23443 whole entry, species assumed): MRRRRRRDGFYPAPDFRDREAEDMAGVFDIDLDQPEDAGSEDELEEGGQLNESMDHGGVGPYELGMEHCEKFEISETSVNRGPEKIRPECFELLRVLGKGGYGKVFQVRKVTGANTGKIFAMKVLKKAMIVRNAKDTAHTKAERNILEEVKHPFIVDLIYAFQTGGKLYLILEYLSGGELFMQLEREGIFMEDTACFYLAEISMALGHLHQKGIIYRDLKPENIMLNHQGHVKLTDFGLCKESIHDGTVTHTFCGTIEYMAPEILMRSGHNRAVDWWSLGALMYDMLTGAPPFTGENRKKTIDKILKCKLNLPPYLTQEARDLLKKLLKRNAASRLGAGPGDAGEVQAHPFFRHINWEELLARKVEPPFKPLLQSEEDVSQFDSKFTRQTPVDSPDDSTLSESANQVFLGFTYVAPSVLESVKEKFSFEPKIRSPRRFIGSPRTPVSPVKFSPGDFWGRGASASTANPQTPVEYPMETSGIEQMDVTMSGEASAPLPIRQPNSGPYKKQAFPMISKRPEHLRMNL

As a reminder, the IC50 is the concentration that gives 50% inhibition. Turning to `Cc1ccc(NC(=O)c2ccc(CN3CC[C@H](N(C)C)C3)c(C(F)(F)F)c2)cc1Nc1nccc(-c2cncnc2)n1` [Bafetinib, bafetinib], the adverse effects result in the data set with KU812 is reported as “without adverse effects”. Moreover, the IC50 at WT Bcr-Abl [1] was 11 nM. For the same compound, the IC50 on WT Bcr-Abl [2] is 22 nM. In addition, in data set [3], the “bioavailability value (BA)” value was 32% and the maximal tolerated dose is 200 mg/kg/day.

For `Cn1cc(C2=C(c3cn(CCCSC(=N)N)c4ccccc34)C(=O)NC2=O)c2ccccc21` [RO 31-8220], in [4] (setting [11]), the “toxicity to normal cells (viability)” value is given as “not to normal cells”. Besides, the half-inhibitory concentration (IC50) on MAPKAP-K1b is 3 nM; on S6K1, 38 nM; on PKCα, 33 nM. Further, the tumor growth result in data set [5] (RO 31-8220 3 mg/kg i.p. vs DMSO) was “inhibited the growth”. Also, the “effect on JNK and glycogen synthase” value in [6] is listed as “Activates”. Also, the “effect on MAPK and ERK2” value in data set [6] is given as “inhibits”. For the same compound, the “toxicity to primary melanomas (viability)” value in [7] was “toxic to all tested primary melanomas”. Also, the “inhibition of voltage-dependent Na+ channels” value in data set [8] is “in the micromolar range”.

Consider `C[C@H]1O[C@@H](O[C@H]2[C@@H](O)C[C@H](O[C@H]3[C@@H](O)C[C@H](O[C@H]4CC[C@@]5(C)[C@H](CC[C@@H]6[C@@H]5CC[C@]5(C)[C@@H](C7=CC(=O)OC7)CC[C@]65O)C4)O[C@@H]3C)O[C@@H]2C)C[C@H](O)[C@@H]1O` [digitoxin], for which the “toxicity to normal cells (viability)” value in data set [4] (setting [11]) is recorded as “not to normal cells”. The tumor growth entry in data set [5] (digitoxin 0.5 mg/kg i.p. vs DMSO) was “inhibited the growth”. Moreover, the “growth of human melanoma xenografts” value in data set [9] is on record as “slowed the growth”. In addition, in [7], the “toxicity to primary melanomas (viability)” value is “toxic to all tested primary melanomas”.

On to `C[C@H]1O[C@@H](O[C@H]2[C@@H](O)C[C@H](O[C@H]3[C@@H](O)C[C@H](O[C@H]4CC[C@@]5(C)[C@H](CC[C@@H]6[C@@H]5C[C@@H](O)[C@]5(C)[C@@H](C7=CC(=O)OC7)CC[C@]65O)C4)O[C@@H]3C)O[C@@H]2C)C[C@H](O)[C@@H]1O` [digoxin], for which the “toxicity to normal cells (viability)” value in data set [4] was “not to normal cells”. In data set [10], the half-life entry is listed as “about 36 hours” and the “plasma concentration at which adverse effects are rare” value is less than 0.8 ng/mL. For the same compound, the “toxicity to primary melanomas (viability)” value in [7] is “toxic to all tested primary melanomas”.

Regarding `C[C@H]1O[C@@H](O[C@H]2[C@@H](O)C[C@H](O[C@H]3[C@@H](O)C[C@H](O[C@H]4CC[C@@]5(C)[C@H](CC[C@@H]6[C@@H]5CC[C@]5(C)[C@@H](C7=CC(=O)OC7)[C@@H](O)C[C@]65O)C4)O[C@@H]3C)O[C@@H]2C)C[C@H](O)[C@@H]1O` [gitoxin], in data set [4] (setting [11]), the “toxicity to normal cells (viability)” value was “not to normal cells”. Besides, the “toxicity to primary melanomas (viability)” value in [7] is “toxic to all tested primary melanomas”.
